Columns and labels:
rhBCAT1 = target: T1, rhBCAT1 (Homo sapiens, UniProt P54687); test: aminotransferase activity assay with leucine dehydrogenase; format: biochemical
T1 sequence (P54687 1-386): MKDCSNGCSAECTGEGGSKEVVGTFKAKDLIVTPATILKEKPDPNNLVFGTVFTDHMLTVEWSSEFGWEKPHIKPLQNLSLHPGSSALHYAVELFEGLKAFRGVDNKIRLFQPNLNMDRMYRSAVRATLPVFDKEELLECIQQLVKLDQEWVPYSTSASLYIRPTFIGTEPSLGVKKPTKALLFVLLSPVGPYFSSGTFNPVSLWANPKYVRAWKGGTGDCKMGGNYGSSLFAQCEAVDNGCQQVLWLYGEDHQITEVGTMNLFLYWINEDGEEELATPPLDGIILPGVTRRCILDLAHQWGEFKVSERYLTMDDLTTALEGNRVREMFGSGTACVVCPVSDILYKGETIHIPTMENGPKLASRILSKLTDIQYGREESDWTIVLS

rhBCAT2 = target: T2, rhBCAT2 (Homo sapiens, UniProt O15382); test: as above; format: biochemical
T2 sequence (O15382 28-392): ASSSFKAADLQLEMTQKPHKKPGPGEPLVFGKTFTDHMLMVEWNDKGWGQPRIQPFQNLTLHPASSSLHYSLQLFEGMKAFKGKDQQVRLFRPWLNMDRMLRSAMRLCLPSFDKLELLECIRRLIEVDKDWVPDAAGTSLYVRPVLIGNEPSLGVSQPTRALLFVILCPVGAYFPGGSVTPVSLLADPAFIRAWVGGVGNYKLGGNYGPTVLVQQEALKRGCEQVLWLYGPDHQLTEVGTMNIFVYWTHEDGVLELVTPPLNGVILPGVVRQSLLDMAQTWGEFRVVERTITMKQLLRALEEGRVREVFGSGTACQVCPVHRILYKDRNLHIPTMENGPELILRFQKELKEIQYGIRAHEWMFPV

Question: How did the IC50 (rhBCAT1) turn out when `O=C(O)CCC(C(=O)c1ccc(Br)cc1)c1ccccc1` (centres unmarked) [ERG245] was run?
Answer: The IC50 was roughly 0.5 nM.

Question: And the IC50 (rhBCAT2)?
Answer: The IC50 was greater than 1000 nM.
